# Test results published in BindingDB's records for doi:10.7270/Q2H70D5W (University of Pittsburgh, 2007).
# Biological target: Gag-Pol polyprotein (Human immunodeficiency virus type 1 group M subtype B (isolate HXB2), UniProt P04585)
# Assay: concentration-response of HIV-1 RNase H blockers – biochemical, probe assessment, dose response (AID 652)
# Conditions: pH 8; 23 °C
row,SMILES,IC50 [nM]
1,COc1ccc(C2C(C(C)=O)=C(C)N=c3sc(=Cc4ccc5c(c4)OCO5)c(=O)n32)cc1 (stereo unspecified) [SMR000020852],7020
2,COc1cc(/N=c2/ssnc2Cl)cc(OC)c1OC [SMR000025034],281
3,O=C(NC1CCCCC1)c1sc(=S)n2c1[nH]c(=O)c1ccccc12 [SMR000030293],645
4,CCCCCCNC(=O)c1c(N)n(N=Cc2ccco2)c2nc3ccccc3nc12 [SMR000042381],2770
5,Cc1nn(CCc2nc(-c3ccco3)cs2)c2nc(O)cc(C(F)(F)F)c12 [SMR000060922],1970
6,CCOC(=O)C1=C(C)N=c2s/c(=C3/C(=O)Nc4ccccc43)c(=O)n2C1c1ccc2c(c1)OCO2 (stereo unspecified) [SMR000072283],1070
7,S=c1[nH]c(C2CC2)nc2ccccc12 [SMR000075851],2060
8,"CCOC(=O)c1sc(NC(=O)CSc2nnc(-c3ccccc3)[nH]2)c(C#N)c1C [ethyl 4-cyano-3-methyl-5-[[2-[(5-phenyl-1H-1,2,4-triazol-3-yl)sulfanyl]acetyl]amino]thiophene-2-carboxylate]",670
9,"CCOC(=O)c1c(C)[nH]c(C(=O)CSc2nc3ccccc3o2)c1C [ethyl 5-[2-(1,3-benzoxazol-2-ylsulfanyl)ethanoyl]-2,4-dimethyl-1H-pyrrole-3-carboxylate]",7600
10,"COC(=O)c1ccc2c(=O)[nH]c(CN3c4ccccc4CC3C)nc2c1 (stereo unspecified) [methyl 2-[(2-methyl-2,3-dihydroindol-1-yl)methyl]-4-oxo-1H-quinazoline-7-carboxylate]",13300
11,"C=CCOC(=O)C1=C(C)N=C(SCC(=O)Nc2ccc(C)c(Cl)c2)C(C#N)C1c1ccco1 (stereo unspecified) [prop-2-enyl 6-[2-(3-chloro-4-methylanilino)-2-oxoethyl]sulfanyl-5-cyano-4-(furan-2-yl)-2-methyl-1,4-dihydropyridine-3-carboxylate]",4250
